Measurements: the NIST ThermoML archive (doi:10.1016/j.jct.2009.05.011)
± gives the expanded uncertainty stated by the source.

Assay: mn = molality of the nth substance listed, in mol/kg
Conditions: 101 kPa, Liquid, Vibrating tube method

CC[C@H](C)[C@H](NC(=O)CN)C(=O)NCC(=O)O [glycyl-L-isoleucylglycine] + O
Conditions | mass density [kg/m3]
288.15 K, m1 = 0.0284 | 1001.07 ± 0.086
288.15 K, m1 = 0.03948 | 1001.83 ± 0.086
288.15 K, m1 = 0.04918 | 1002.5 ± 0.087
288.15 K, m1 = 0.05715 | 1003.04 ± 0.086
288.15 K, m1 = 0.06935 | 1003.87 ± 0.086
288.15 K, m1 = 0.07955 | 1004.56 ± 0.086
288.15 K, m1 = 0.08916 | 1005.21 ± 0.086
288.15 K, m1 = 0.1012 | 1006.02 ± 0.087
303.15 K, m1 = 0.01893 | 996.925 ± 0.086
303.15 K, m1 = 0.0328 | 997.846 ± 0.09
303.15 K, m1 = 0.04344 | 998.561 ± 0.092
303.15 K, m1 = 0.04827 | 998.872 ± 0.085
303.15 K, m1 = 0.05907 | 999.58 ± 0.084
303.15 K, m1 = 0.06849 | 1000.21 ± 0.097
303.15 K, m1 = 0.07945 | 1000.91 ± 0.086
303.15 K, m1 = 0.09989 | 1002.23 ± 0.083
313.15 K, m1 = 0.02969 | 994.182 ± 0.086
313.15 K, m1 = 0.04028 | 994.873 ± 0.085
313.15 K, m1 = 0.05061 | 995.543 ± 0.085
313.15 K, m1 = 0.05971 | 996.132 ± 0.084
313.15 K, m1 = 0.07966 | 997.418 ± 0.084

CC(C)C[C@H](NC(=O)CN)C(=O)NCC(=O)O [glycyl-L-leucylglycine] + O
Conditions | mass density [kg/m3]
288.15 K, m1 = 0.03052 | 1001.2 ± 0.085
288.15 K, m1 = 0.04107 | 1001.91 ± 0.086
288.15 K, m1 = 0.05063 | 1002.57 ± 0.085
288.15 K, m1 = 0.06015 | 1003.2 ± 0.086
288.15 K, m1 = 0.07034 | 1003.9 ± 0.086
288.15 K, m1 = 0.08092 | 1004.6 ± 0.085
288.15 K, m1 = 0.09106 | 1005.27 ± 0.085
288.15 K, m1 = 0.1008 | 1005.92 ± 0.086
298.15 K, m1 = 0.01963 | 998.372 ± 0.085
298.15 K, m1 = 0.03198 | 999.201 ± 0.083
298.15 K, m1 = 0.04637 | 1000.16 ± 0.082
298.15 K, m1 = 0.0606 | 1001.11 ± 0.085
298.15 K, m1 = 0.07265 | 1001.9 ± 0.087
298.15 K, m1 = 0.08576 | 1002.77 ± 0.084
298.15 K, m1 = 0.09698 | 1003.5 ± 0.073
303.15 K, m1 = 0.01876 | 996.907 ± 0.09
303.15 K, m1 = 0.03847 | 998.204 ± 0.084
303.15 K, m1 = 0.04881 | 998.896 ± 0.085
303.15 K, m1 = 0.05715 | 999.436 ± 0.083
303.15 K, m1 = 0.06905 | 1000.22 ± 0.081
303.15 K, m1 = 0.07699 | 1000.73 ± 0.087
303.15 K, m1 = 0.08729 | 1001.4 ± 0.085
303.15 K, m1 = 0.09709 | 1002.03 ± 0.073
313.15 K, m1 = 0.01926 | 993.479 ± 0.086
313.15 K, m1 = 0.02873 | 994.105 ± 0.085
313.15 K, m1 = 0.04912 | 995.406 ± 0.085
313.15 K, m1 = 0.06755 | 996.608 ± 0.084
313.15 K, m1 = 0.07763 | 997.232 ± 0.083
313.15 K, m1 = 0.0869 | 997.826 ± 0.083
313.15 K, m1 = 0.1005 | 998.668 ± 0.082

CSCC[C@H](NC(=O)CN)C(=O)NCC(=O)O [glycyl-L-methionylglycine] + O
Conditions | mass density [kg/m3]
288.15 K, m1 = 0.02065 | 1000.96 ± 0.1
288.15 K, m1 = 0.02481 | 1001.33 ± 0.1
288.15 K, m1 = 0.03005 | 1001.79 ± 0.1
288.15 K, m1 = 0.04038 | 1002.71 ± 0.1
288.15 K, m1 = 0.05024 | 1003.58 ± 0.1
288.15 K, m1 = 0.06017 | 1004.46 ± 0.1
288.15 K, m1 = 0.07183 | 1005.48 ± 0.1
288.15 K, m1 = 0.07978 | 1006.18 ± 0.1
288.15 K, m1 = 0.0913 | 1007.18 ± 0.11
303.15 K, m1 = 0.03024 | 998.275 ± 0.14
303.15 K, m1 = 0.03988 | 999.096 ± 0.11
303.15 K, m1 = 0.05998 | 1000.82 ± 0.096
303.15 K, m1 = 0.06988 | 1001.65 ± 0.097
303.15 K, m1 = 0.07911 | 1002.43 ± 0.099
303.15 K, m1 = 0.08988 | 1003.32 ± 0.11
303.15 K, m1 = 0.1012 | 1004.27 ± 0.1
313.15 K, m1 = 0.0199 | 993.923 ± 0.1
313.15 K, m1 = 0.03002 | 994.787 ± 0.1
313.15 K, m1 = 0.04003 | 995.629 ± 0.1
313.15 K, m1 = 0.05041 | 996.504 ± 0.1
313.15 K, m1 = 0.061 | 997.393 ± 0.1
313.15 K, m1 = 0.07039 | 998.173 ± 0.1
313.15 K, m1 = 0.08051 | 999.015 ± 0.1
